# Experimental data as given in paper PMC5077990, “P53 activation inhibits all types of hematopoietic progenitors and all stages of megakaryopoiesis” (Oncotarget, 2016).
# Entries after “also recorded” stand apart in the source; their conditions may differ. Read-outs that look alike come from different tables or passages of the source.
# Columns and labels:
# [1] = tested on: day 10-MKs (proplatelet formation); experiment: Proplatelet formation assay; format: cell-based, human
# Procedure: Then, we explored the effects of p53 stabilization on PPT formation (the step before platelet release). […] To confirm that this was due to p53 stabilization, we knocked-down p53 with 2 shRNA showing a decrease in P53 RNA and protein levels (Figure 7B/7C) and reduced expression of p53 targets (Figure 7D).
# Figure 7 Effects of p53 stabilization on PPT formation A. Percentage of proplatelet-forming day 10-MKs after incubation with 0.5 or 1 μM of SAR405838 or MI-219. […] A total of 200 cells per well were counted during 4 days. Error bars in histograms represent the SD of one representative experiment performed in triplicate wells. Similar results were obtained in 3 repeated experiments. * represents statistical significance (**P<0.01). […] D. p53, MDM2, BCL-XL, BAX and p21 protein levels were analyzed in GFP^+/CD41^+ sorted cells by Western blot (at days 10 and 13 of culture). β-actin was used as loading control. […] A total of 200 cells per well were counted during 4 days (from day 11 to day 14). […]
# CD41^+GFP^+ MKs were sorted at day 8 of culture and plated in 96-well plates at a concentration of 2,000 cells/well in serum-free medium containing TPO, and quantification of PPT bearing MKs was performed as previously described. […] A total of 200 cells per well were counted during 4 days. […]
# Day 8-erythroblasts = experiment: Viable erythroblasts counted by Trypan blue exclusion; format: cell-based; conditions: Homo sapiens, day 8-erythroblasts treated 48 hours, read-out: IC50, decrease in viable cells
# Procedure: Day 8-erythroblasts were treated with various doses of SAR405838 or MI-219 for 48 hours. The viable cells were counted by Trypan blue exclusion and the apoptotic cells were quantified by flow cytometry analysis using annexin V/ propidium iodide labeling.
# B. Day 8-erythroblasts were treated with various doses of MI-219 or SAR405838 for 48 hours and counted by trypan blue exclusion. C. Day 8-erythroblasts were treated with various doses of MI-219 or SAR405838 for 48 hours and apoptotic cells were analyzed by flow cytometry using Annexin V assay. The results represent the mean of 3 independent experiments. * represents statistical significance (*P<0.05; **P<0.01; ***P<0.001).
# [2] = tested on: CFU-MK (Colony Forming Unit-Megakaryocyte) progenitors from CD34+ cells; experiment: Colony assay in fibrin clot, CFU-MK; format: cell-based, human; conditions: Homo sapiens
# Procedure: CD34^+cells were obtained from leukapheresis samples after mobilization of donors after informed consent in agreement with our Institute Ethic Committee (Assistance Publique des Hôpitaux de Paris) and in accordance with the Declaration of Helsinki. CD34^+cells were isolated by a positive selection using an immunomagnetic cell sorting system (AutoMacs; Miltenyi Biotec, Bergisch Gladbach, Germany). 500 to 1000 normal CD34^+cells were plated either in 1% methylcellulose assay (StemCells technologies, Vancouver, Canada) to quantify erythroid (BFU-E) and granulo-monocytic (CFU-GM) progenitors or in serum-free fibrin clot assay for quantification of MK progenitors (CFU-MK) in the absence or presence of various concentration of SAR405838 or MI-219. Cultures in methylcellulose were stimulated by addition of human recombinant growth factors: G-CSF (20 ng/mL), IL-3 (10 ng/mL) SCF (25 ng/mL, Biovitrum AB, Stockholm, Sweden), IL-6 (10 ng/mL), FLT3 (10 ng/mL) and human EPO (1 U/mL). Cultures in fibrin clot were stimulated with 10 ng/mL TPO (Kirin Brewery, Tokyo, Japan) and 25 ng/mL SCF. BFU-E and CFU-GM colonies were enumerated at day 14 of culture. […]
# megakaryoblasts / MKs = experiment: Apoptosis of megakaryoblasts/MKs, Annexin V flow cytometry; format: cell-based, human; conditions: day 6-megakaryoblasts
# Procedure: We also explored the effects of p53 stabilization at a later stage of megakaryocytic differentiation. […] Day 7-MKs were treated with 5 μM Nutlin 3a for 24 or 48 hours, which led to an increase in p53, p21, BAX, BCL2 and BCL-XL levels, confirming a functional p53 activity (Figure 6A). […] Similar results were found with day 6-megakaryoblasts treated with two doses of SAR405838 for 72 hours (Figure 6D/6E) without any major effect on the percentage of CD41^+ cells (Figure 6F). […] As shown in Figure 6D/6E, at the dose of 0.5 μM the SAR405838 induced a 50% decreased in the number of viable cells while the apoptotic cells reached 50% of the total cells. We checked if the effect of SAR405838 on MKs could be reverted by the addition of high TPO doses. CD34^+ progenitors were cultured in serum-free medium supplemented with SCF and low dose of TPO (1 ng/mL) for 6 days. Day 6-megakaryoblasts were then treated with 1.5 μM of SAR405838 for 48 hours and various doses of TPO.
# In parallel, the expression of P53, BAK, BCL2L1, NOXA, PUMA, BAX, P21 and P53 were quantified by qRT-PCR related to HPRT. C. […] (n=3). […]
# Apoptosis was measured by Annexin V-FITC detection kit (BD Pharmigen, San Diego, CA) and analyzed by flow cytometry on a LSRII (Becton Dickinson Mountain View, CA).
smiles,measurement,setting,value
CC(C)(C)C[C@@H]1N[C@@H](C(=O)N[C@H]2CC[C@H](O)CC2)[C@H](c2cccc(Cl)c2F)[C@]12C(=O)Nc1cc(Cl)ccc12 [SAR405838],PPT (proplatelet) formation,[1]; 0.5 μM,inhibited; also recorded: drastically decreased
same,PPT (proplatelet) formation,[1]; 1 μM,completely abrogated; also recorded: completely abolished
same,IC50,Day 8-erythroblasts,500 nM
same,IC50,"[2]; 72 h, CD34+ cells treated 3 days, washed, then plated in colony assay, read-out: IC50, reduction of CFU-MK progenitors",~2000 nM
same,IC50,"[2]; CD34+ cells seeded in fibrin clot in the presence of compound, compared to untreated control, read-out: dose inducing a 50% reduction of CFU-MK numbers",500 to 1000 nM
same,"apoptotic cells, of the total cells","megakaryoblasts / MKs; 0.5 μM, 72 hours",50%
same,reversal of compound-mediated MK apoptosis by increasing doses of TPO,"megakaryoblasts / MKs; 1.5 μM for 48 hours, various doses of TPO",unable to revert
